In brackets after ≈: the same amount, converted by molar mass. Where a SMILES comes first, the peptide text is derived from it. Bridges are numbered along the chain shown (N, C = ends). [ ]: non-standard residue; d: D form. The star is where a group is joined. Ileψ(thiazoline)Cys = CC[C@H](C)[C@H](N)C1=N[C@H](C(=O)*)CS1; dOrn = NCCC[C@@H](N)C(=O)O
What was measured:
MRSA 639E = assay: microbe, parasite or virus in culture; format: cell-based, Staphylococcus aureus; conditions: 18 h
Experimental: (§1) This activity in terms of minimal inhibitory concentration (MIC) was determined by dilution and disk diffusion methods as per the Clinical and Laboratory Standards Institute (CLSI) guidelines for antimicrobial susceptibility testing. The examination of bacteria was conducted after incubation for 18 h at 37°C following inoculation of various test microorganisms, including methicillin-resistant Staphylococcus aureus (MRSA), vancomycin-resistant S. aureus (VRSA), or vancomycin-resistant enterococci (VRE). Control antibiotics were bacitracin and vancomycin.

MRSA S3 = assay: microbe, parasite or virus in culture; format: cell-based, Staphylococcus aureus
Experimental: as §1

MSRA S1 = assay: microbe, parasite or virus in culture; format: cell-based, Staphylococcus aureus; conditions: 18 h
Experimental: as §1

MRSA P3 = assay: microbe, parasite or virus in culture; format: cell-based, Staphylococcus aureus
Experimental: as §1

MRSA 4–5 = assay: microbe, parasite or virus in culture; format: cell-based, Staphylococcus aureus
Experimental: as §1

MRSA 5–3 = assay: microbe, parasite or virus in culture; format: cell-based, Staphylococcus aureus
Experimental: as §1

MRSA U4 = assay: microbe, parasite or virus in culture; format: cell-based, Staphylococcus aureus
Experimental: as §1

[1] = test system: Listeria monocytogenes KCTC3569; assay: microbe, parasite or virus in culture; format: cell-based; conditions: KCTC3569, 18 h
Experimental: as §1

[2] = test system: Alcaligenes faecalis ATCC 1004; assay: microbe, parasite or virus in culture; format: cell-based
Experimental: as §1

[3] = test system: Salmonella typhimurium KCTC 1925; assay: microbe, parasite or virus in culture; format: cell-based
Experimental: as §1

[4] = test system: Micrococcus luteus ATCC 9341; assay: microbe, parasite or virus in culture; format: cell-based
Experimental: as §1

[5] = test system: Mycobacterium smegmatis ATCC 9341; assay: microbe, parasite or virus in culture; format: cell-based; conditions: ATCC 9341, 18 h
Experimental: as §1

VRSA = assay: microbe, parasite or virus in culture; format: cell-based, S. aureus; conditions: 18 h
Experimental: as §1

[6] = test system: Pseudomonas aeruginosa KCTC 1637; format: cell-based; conditions: KCTC 1637, 18 h
Experimental: as §1

[7] = test system: Enterococcus faecalis ATCC 29212; format: cell-based; conditions: ATCC 29212, 18 h
Experimental: as §1

[8] = test system: Staphylococcus aureus KCTC 1928; format: cell-based; conditions: KCTC 1928, 18 h
Experimental: as §1

[9] = test system: Bacillus subtilis ATCC 6633; format: cell-based; conditions: ATCC 6633, 18 h
Experimental: as §1

[10] = test system: Escherichia coli KCTC 1923; format: cell-based; conditions: KCTC 1923, 18 h
Experimental: as §1

VRE3 = assay: organism not typed; format: cell-based, enterococci; conditions: 18 h
Experimental: as §1

VRE89 = assay: organism not typed; format: cell-based, enterococci; conditions: 18 h
Experimental: as §1

VRE4 = assay: organism not typed; format: cell-based, enterococci; conditions: 18 h
Experimental: as §1

VRE6 = assay: organism not typed; format: cell-based, enterococci; conditions: 18 h
Experimental: as §1

VRE5 = assay: organism not typed; format: cell-based, enterococci; conditions: 18 h
Experimental: as §1

VRE82 = assay: organism not typed; format: cell-based, enterococci; conditions: 18 h
Experimental: as §1

VRE 2 = assay: microbe, parasite or virus in culture; format: cell-based, enterococci; conditions: 18 h
Experimental: as §1

RAW 264.7 cells = assay: Cell viability, MTT assay; format: cell-based, mouse; conditions: 5–100 μg/mL, 24 h; three independent experiments in triplicate
Experimental: Cell viability was assessed using the 3-(4,5-dimethylthiazol-2-yl)-2,5-diphenyltetrazolium bromide (MTT) assay as described previously by Choi et al. (2016). For the cell viability assay, RAW 264.7 cells were seeded into a 96-well flat bottom microplate at a density of 2 × 10^4 cells per well and incubated at 37°C for 1 h. […] After 24 h of incubation, the medium was removed and wash in PBS once followed by 100 μl of MTT (5 mg/ml in PBS) solution was added to each well, and the plate was incubated for another 1 h. Then 100 μl of DMSO (100%) was added to dissolve the formazan crystals. Absorbance values were then measured at 450 nm using a microplate reader (Victor3, PerkinElmer).

[11] = test system: Propionibacterium acnes KCTC5933; assay: Antimicrobial activity against anaerobic pathogens (mm); format: cell-based; conditions: 48 h, mean ± SD, n = 3
[12] = test system: Clostridium difficile KCTC2251; assay: as above; format: cell-based; conditions: 48 h, mean ± SD, n = 3
Mycobacterium smegmatis = assay: microbe, parasite or virus in culture; format: cell-based; conditions: Mycolicibacterium smegmatis, ATCC9341, 18 h
Experimental: as §1

[13] = Staphylococcus aureus, MRSA, 18 h

Question: Which MIC (MRSA 639E; 639E) does the source give for `CC[C@H](C)[C@H](N)C1=N[C@H](C(=O)N[C@@H](CC(C)C)C(=O)N[C@H](CCC(=O)O)C(=O)N[C@H](C(=O)N[C@H]2CCCCNC(=O)[C@H](CC(N)=O)NC(=O)[C@@H](CC(=O)O)NC(=O)[C@H](Cc3cnc[nH]3)NC(=O)[C@@H](Cc3ccccc3)NC(=O)[C@H]([C@@H](C)CC)NC(=O)[C@@H](CCCN)NC2=O)[C@@H](C)CC)CS1` [Bacitracin] ({Ileψ(thiazoline)Cys}-L[dE]IK[dOrn]I[dF]H[dD]N; lactam 4-C (inferred); N-terminus assumed) here?
Answer: 40 µg/mL (≈ 28.1 µM)

Question: What about the MIC (MRSA S3; S3, 18 h) of the same molecule?
Answer: 1.25 µg/mL (≈ 0.879 µM)

Question: And the MIC (MSRA S1)?
Answer: 1.25 µg/mL (≈ 0.879 µM)

Question: And the MIC (MRSA P3; P3, 18 h)?
Answer: 1.25 µg/mL (≈ 0.879 µM)

Question: And the MIC (MRSA 4–5; 4–5, 18 h)?
Answer: 1.25 µg/mL (≈ 0.879 µM)

Question: What about the MIC (MRSA 5–3; 5–3, 18 h) of the same molecule?
Answer: 1.25 µg/mL (≈ 0.879 µM)

Question: And the MIC (MRSA U4; U4, 18 h)?
Answer: 1.25 µg/mL (≈ 0.879 µM)

Question: What about the MIC [1] of the same molecule?
Answer: 0.3125 µg/mL (≈ 0.22 µM)

Question: What about the MIC ([2]; ATCC 1004, 18 h) of the same molecule?
Answer: >80 µg/mL

Question: What about the MIC ([3]; KCTC 1925, 18 h) of the same molecule?
Answer: >80 µg/mL

Question: What about the MIC ([4]; ATCC 9341, 18 h) of the same molecule?
Answer: >80 µg/mL

Question: What about the MIC [5] of the same molecule?
Answer: >80 µg/mL

Question: And the MIC (VRSA)?
Answer: >80 µg/mL

Question: What about the MIC [6] of the same molecule?
Answer: >80 µg/mL

Question: What about the MIC [7] of the same molecule?
Answer: 5 µg/mL (≈ 3.51 µM)

Question: And the MIC [8]?
Answer: 40 µg/mL (≈ 28.1 µM)

Question: What about the MIC [9] of the same molecule?
Answer: 40 µg/mL (≈ 28.1 µM)

Question: And the MIC [10]?
Answer: >80 µg/mL

Question: And the MIC (VRE3)?
Answer: 20 µg/mL (≈ 14.1 µM)

Question: And the MIC (VRE89)?
Answer: 40 µg/mL (≈ 28.1 µM)

Question: What about the MIC (VRE4) of the same molecule?
Answer: 5 µg/mL (≈ 3.51 µM)

Question: What about the MIC (VRE6) of the same molecule?
Answer: >80 µg/mL

Question: And the MIC (VRE5)?
Answer: 1.25 µg/mL (≈ 0.879 µM)

Question: What about the MIC (VRE82) of the same molecule?
Answer: 40 µg/mL (≈ 28.1 µM)

Question: What about the MIC (VRE 2) of the same molecule?
Answer: 0.3125 µg/mL (≈ 0.22 µM)

Question: How did the “Cytotoxicity toward RAW 264.7 cells (MTT)” value (RAW 264.7 cells) turn out when `CC[C@H](C)[C@H](N)C1=N[C@H](C(=O)N[C@@H](CC(C)C)C(=O)N[C@H](CCC(=O)O)C(=O)N[C@H](C(=O)N[C@H]2CCCCNC(=O)[C@H](CC(N)=O)NC(=O)[C@@H](CC(=O)O)NC(=O)[C@H](Cc3cnc[nH]3)NC(=O)[C@@H](Cc3ccccc3)NC(=O)[C@H]([C@@H](C)CC)NC(=O)[C@@H](CCCN)NC2=O)[C@@H](C)CC)CS1` [CSP32] ({Ileψ(thiazoline)Cys}-L[dE]IK[dOrn]I[dF]H[dD]N; lactam 4-C) was run?
Answer: did not exert cytotoxicity

Question: With `CC[C@@]1([C@@H]2O[C@@H]([C@H]3O[C@@](O)(CO)[C@H](C)C[C@@H]3C)C[C@@H]2C)CC[C@H]([C@]2(C)CC[C@]3(C[C@H](O)[C@@H](C)[C@@H]([C@@H](C)[C@@H](OC)[C@H](C)C(=O)O)O3)O2)O1` [Monensin] as the molecule, how does the “Antimicrobial activity, Propionibacterium acnes (mm)” value ([11]; concentration 0.125 mg/mL) read?
Answer: 13.00±0.50 mm

Question: What about the “Antimicrobial activity, Propionibacterium acnes (mm)” value ([11]; concentration 0.25 mg/mL) of the same molecule?
Answer: 15.17±0.29 mm

Question: And the “Antimicrobial activity, Propionibacterium acnes (mm)” value ([11]; concentration 0.5 mg/mL)?
Answer: 17.33±0.58 mm

Question: What about the “Antimicrobial activity, Propionibacterium acnes (mm)” value ([11]; concentration 1 mg/mL) of the same molecule?
Answer: 17.17±0.29 mm

Question: What about the “Antimicrobial activity, Clostridium difficile (mm)” value ([12]; concentration 0.125 mg/mL) of the same molecule?
Answer: 13.17±0.29 mm

Question: What about the “Antimicrobial activity, Clostridium difficile (mm)” value ([12]; concentration 0.25 mg/mL) of the same molecule?
Answer: 13.00±0.50 mm

Question: What about the “Antimicrobial activity, Clostridium difficile (mm)” value ([12]; concentration 0.5 mg/mL) of the same molecule?
Answer: 15.17±0.29 mm

Question: And the “Antimicrobial activity, Clostridium difficile (mm)” value ([12]; concentration 1 mg/mL)?
Answer: 17.33±0.29 mm

Question: With `CN[C@H](CC(C)C)C(=O)N[C@H]1C(=O)N[C@@H](CC(N)=O)C(=O)N[C@H]2C(=O)N[C@H]3C(=O)N[C@H](C(=O)N[C@H](C(=O)O)c4cc(O)cc(O)c4-c4cc3ccc4O)[C@H](O)c3ccc(c(Cl)c3)Oc3cc2cc(c3O[C@@H]2O[C@H](CO)[C@@H](O)[C@H](O)[C@H]2O[C@H]2C[C@](C)(N)[C@H](O)[C@H](C)O2)Oc2ccc(cc2Cl)[C@H]1O` [Vancomycin] as the molecule, how does the MIC (MRSA 639E; Staphylococcus aureus, MRSA) read?
Answer: 0.312 µg/mL (≈ 0.216 µM)

Question: What about the MIC (MRSA S3; [13]) of the same molecule?
Answer: 0.312 µg/mL (≈ 0.216 µM)

Question: And the MIC (MSRA S1; Staphylococcus aureus)?
Answer: 0.625 µg/mL (≈ 0.431 µM)

Question: And the MIC (MRSA P3; [13])?
Answer: 0.625 µg/mL (≈ 0.431 µM)

Question: And the MIC (MRSA 4–5; [13])?
Answer: 0.312 µg/mL (≈ 0.216 µM)

Question: What about the MIC (MRSA 5–3; [13]) of the same molecule?
Answer: 0.312 µg/mL (≈ 0.216 µM)

Question: What about the MIC (MRSA U4; [13]) of the same molecule?
Answer: 0.312 µg/mL (≈ 0.216 µM)

Question: And the MIC ([1]; Listeria monocytogenes)?
Answer: 0.156 µg/mL (≈ 0.108 µM)

Question: And the MIC ([2]; Alcaligenes faecalis, ATCC1004, 18 h)?
Answer: > 80 µg/mL

Question: What about the MIC (Mycobacterium smegmatis) of the same molecule?
Answer: 0.312 µg/mL (≈ 0.216 µM)

Question: And the MIC ([3]; Salmonella enterica, 18 h)?
Answer: > 80 µg/mL

Question: What about the MIC ([4]; Micrococcus luteus, ATCC9341, 18 h) of the same molecule?
Answer: 0.156 µg/mL (≈ 0.108 µM)

Question: What about the MIC (VRSA; Staphylococcus aureus, VRSA) of the same molecule?
Answer: > 80 µg/mL

Question: What about the MIC (VRE3) of the same molecule?
Answer: > 80 µg/mL

Question: What about the MIC (VRE89) of the same molecule?
Answer: > 80 µg/mL

Question: And the MIC (VRE4)?
Answer: > 80 µg/mL

Question: What about the MIC (VRE6) of the same molecule?
Answer: > 80 µg/mL

Question: What about the MIC (VRE5) of the same molecule?
Answer: > 80 µg/mL

Question: And the MIC (VRE82)?
Answer: > 80 µg/mL

Question: What about the MIC (VRE 2; Enterococcus, VRE) of the same molecule?
Answer: > 80 µg/mL

Reference: paper PMC5426640, “A novel multifunctional peptide oligomer of bacitracin with possible bioindustrial and therapeutic applications from a Korean food-source Bacillus strain” (PLoS ONE, 2017)
